Results from patent publication EP0745083B1, “2-HETEROARYL-5,11-DIHYDRO-6H-DIPYRIDO [3,2-b:2',3'-e][1,4]DIAZEPINES AND THEIR USE IN THE PREVENTION OR TREATMENT OF HIV INFECTION” (BOEHRINGER INGELHEIM PHARMACEUTICALS INC., priority 1994, dated 1995).

Experiments:
Format in all cases: biochemical, Human Immunodeficiency Virus (HIV-1)
HIV-1 RT Y188L = target: T1, HIV-1 RT Y188L (Human immunodeficiency virus type 1 group M subtype B, UniProt P03367, Y787L); assay: Reverse Transcriptase (RT) Assay, Y188L mutant enzyme; conditions: 1 µM compound
T1 construct: effective against the reverse transcriptase of many mutant viruses; made in house

HIV-1 RT Y181C = target: T2, HIV-1 RT Y181C (Human immunodeficiency virus type 1 group M subtype B, UniProt P03367, Y780C); assay: Reverse Transcriptase (RT) Assay, Y181C mutant enzyme; conditions: 1 µM compound; for inhibition at 1 µM: read-out: Reverse Transciptase Assay % inhibition (1 µM) Y181C
T2 construct: Utilization of mutant RT eraymes (Y181C and Y181L, prepared by site-directed mutagenesis); made in house
Source text: (§1) Among the enzymes for which Human Immunodeficiency Virus (HIV-1) encodes is a reverse transcriptase (1), so-named because it transcribes a DNA copy from an RNA template. This activity can be quantitatively measured in a cell-free enzyme assay, which has been previously described (2), and is based upon the observation that reverse transcriptase is able to use a synthetic template [poly r(C) primed with oligo d(G)] to transcribe a radio-labelled, acid-precipitable DNA strand utilizing ^3H-dGTP as a substrate. The assay described below utilizes the wild type (WT) enzyme, which is the predominant form of the enzyme observed in patients infected with HIV-1. Utilization of mutant RT eraymes (Y181C and Y181L, prepared by site-directed mutagenesis in which the tyrosine residue at codon 181 has been replaced by a cysteine or a leucine residue, respectively) and analogous assay conditions allows compounds to be evaluated for their effectiveness at inhibiting these mutant enzymes.
(§2) The 2X concentrated stock reaction mixture is aliquoted and stored at -20°C. The mixture is stable and thawed for use in each assay. This enzyme assay has been adapted to a 96 well microtiter plate system, and has been previously described (6). Tris buffer (50 mM, pH 7.4), vehicle (solvent diluted to match the compound dilution), or compounds in vehicle are dispensed into 96-well microtiter plates (10µL/well; 3 wells/ compound). The HIV-1 RT enzyme is thawed, diluted in 50mM Tris pH 7.4 so that fifteen µL of diluted enzyme contain 0.001 Unit (one unit is that amount of enzyme to transform 1 micromole of substrate per minute at 25°C), and fifteen µL are dispensed per well. Twenty µL of 0.12-0.5M EDTA are added to the first three wells of the microtiter plate. EDTA chelates the Mg^++ present and prevents reverse transcription. This group serves as background polymerization which is subtracted from all other groups. Twenty-five ul of the 2X reaction mixture are added to all wells and the assay is allowed to incubate at room temperature for 60 minutes. The assay is terminated by precipitating the DNA in each well with 50µL of 10% trichloracetic acid (TCA) (10% w/v) in sodium pyrophosphate (1% w/v). The microtiter plate is incubated for 15 minutes at 4°C and the precipitate is fixed onto #30 glass fiber paper (Schleicher & Schuell) using a Skatron semi-automatic harvester. The filters are then washed with additional TCA (5%) containing sodium pyrophosphate (1%), rinsed with aqueous ethanol (70%), dried, and transferred to scintillation vials (6). Each vial receives 2 mL of scintillation cocktail and is counted in a Beckman beta counter. The calculation for percent inhibition is as follows: % inhibition =(CPM Mean Test Value - CPM Mean Control Value X100)/(CPM Mean Control Value) [formula]

[1] = target: T3, HIV-1 RT wild type (WT) enzyme (Human immunodeficiency virus type 1 group M subtype B, UniProt P03367); assay: Reverse Transcriptase (RT) Assay, wild type enzyme (RNA-dependent DNA polymerase activity); conditions: 1 µM compound; for inhibition at 1 µM: read-out: Reverse Transciptase Assay % inhibition (1 µM) WT
T3 construct: Reverse transcriptase enzyme from the LAV strain of Human Immunodeficiency Virus (HIV-1) (1) was isolated from the bacterial strain JM109; made in house; host or cells: E. coli JM109 (clone pBRTprt1+ in vector pIBI21, lac promoter)
Source text: Utilizing the Reverse Transcriptase (RT) Assay described below, compounds can be tested for their ability to inhibit the RNA-dependent DNA polymerase activity of HIV-1 RT. Certain specific compounds described in the Examples which appear below, were so tested.
as §1
Reverse transcriptase enzyme from the LAV strain of Human Immunodeficiency Virus (HIV-1) (1) was isolated from the bacterial strain JM109 (3) expressing the DNA clone pBRTprt1+ (2) which is under the control of the lac promotor in the expression vector pIBI21 (4). An overnight culture grown in 2XYT medium (37°C, 225 rpm) (5) supplemented with 100 µg/mL ampicillin for positive selection is inoculated at a 1:40 dilution into M9 medium supplemented with 10µg/mL thiamine, 0.5% casamino acids, and 50 µg/mL ampicillin (5). The culture is incubated (37°C, 225 rpm) until it reaches an OD540 of 0.3-0.4. At that time the repressor inhibitor IPTG (isopropyl β-D-thiogalactopyranoside) is added to 0.5mM, and the mixture is incubated for 2 additional hours. Bacteria are pelleted, resuspended in a 50mM Tris, 0.6mM EDTA, 0.375M NaCl buffer and digested by the addition of lysozyme (1mg/mL) for 30 minutes on ice. The cells are lysed by the addition of 0.2% NP-40 and brought to 1M NaCl.
After removal of the insoluble debris by centrifugation, the protein is precipitated by the addition of 3 volumes of saturated aqueous ammonium sulfate. The enzyme is pelleted, resuspended in RT buffer (50mM Tris pH 7.5, 1mM EDTA, 5mM DTT, 0.1% NP-40, 0.1M NaCI, and 50% glycerol), and stored at -70°C for further use.
as §2, with “The filters are then washed with additional TCA (5%) containing sodium pyrophosphate (1%), rinsed with aqueous ethanol (70%), dried, and transferred to scintillation vials (6). Each vial receives 2 mL of scintillation cocktail and is counted in a Beckman beta counter. The calculation for percent inhibition is as follows: % inhibition =(CPM Mean Test Value - CPM Mean Control Value X100)/(CPM Mean Control Value) [formula]” left out

## CCN1c2ncccc2C(=O)N(C)c2ccc(-c3cn[nH]c3)nc21 [Example 26, 5,11-Dihydro-11-ethyl-5-methyl-2-(4-pyrazolyl)-6H-dipyrido[3,3-b:2',3'-e][1,4]diazepine-6-one]
HIV-1 RT Y188L; 1 µM
  Reverse Transciptase Assay % inhibition (1 µM) Y188L: 20%
HIV-1 RT Y181C
  Reverse Transciptase Assay % inhibition (1 µM) Y181C: 33%
[1]
  Reverse Transciptase Assay % inhibition (1 µM) WT: 64%

## CCN1c2ncccc2C(=O)N(C)c2ccc(-c3c[nH]nc3C)nc21 [Example 10, 5,11-Dihydro-11-ethyl-5-methyl-2-(3-methylpyrazol-4-yl)-6H-dipyrido[3,2-b:2',3'-e][1,4]-diazepin-6-one]
HIV-1 RT Y188L
  Reverse Transciptase Assay % inhibition (1 µM) Y188L: 66%
HIV-1 RT Y181C
  inhibition at 1 µM: 73%
[1]
  inhibition at 1 µM: 94%

## CN1C(=O)c2cccnc2N(C)c2nc(-c3ccc[nH]3)ccc21 [Example 24, 5,11-Dihydro-5,11-dimethyl-2-(2-pyrrolyl)-6H-dipyrido[3,2-b:2',3'-e][1,4]diazepin-6-one]
HIV-1 RT Y188L
  Reverse Transciptase Assay % inhibition (1 µM) Y188L: 18%
HIV-1 RT Y181C
  inhibition at 1 µM: 50%
[1]
  inhibition at 1 µM: 39%

## CCN1c2ncccc2C(=O)N(C)c2ccc(-c3ccn(C)c3)nc21 [Example 20, 5,11-Dihydro-11-ethyl-5-methyl-2-(1-methylpyrrol-3-yl)-6H-dipyrido[3,2-b:2',3'-e][1,4]-diazepin-6-one]
HIV-1 RT Y188L
  Reverse Transciptase Assay % inhibition (1 µM) Y188L: 26%
HIV-1 RT Y181C
  inhibition at 1 µM: 36%
[1]
  inhibition at 1 µM: 65%

## CCN1c2ncccc2C(=O)N(C)c2ccc(-c3c[nH]c(C(=O)O)c3)nc21 [Example 21, 2-(2-Carboxypyrrol-4-yl)-5,11-dihydro-11-ethyl-5-methyl-6H-dipyrido[3,2-b:2',3'-e][1,4]-diazepin-6-one]
HIV-1 RT Y188L
  Reverse Transciptase Assay % inhibition (1 µM) Y188L: 46%
HIV-1 RT Y181C
  inhibition at 1 µM: 28%
[1]
  inhibition at 1 µM: 33%

## CCN1c2ncccc2C(=O)N(C)c2ccc(-c3cc[nH]c3C#N)nc21 [Example 18, 2-(2-Cyanopyrrol-3-yl)-5,11-dihydro-11-ethyl-5-methyl-6H-dipyrido[3,2-b:2',3'-e][1,4]-diazepin-6-one]
HIV-1 RT Y188L
  Reverse Transciptase Assay % inhibition (1 µM) Y188L: 57%
HIV-1 RT Y181C
  inhibition at 1 µM: 82%
[1]
  inhibition at 1 µM: 87%

## CCN1c2ncccc2C(=O)N(C)c2ccc(-c3cnn(C)c3)nc21 [Example 3, 5,11-Dihydro-11-ethyl-5-methyl-2-(1-methylpyrazol-4-yl)-6H-dipyrido[3,2-b:2',3'-e][1,4]-diazepin-6-one]
HIV-1 RT Y188L
  Reverse Transciptase Assay % inhibition (1 µM) Y188L: 24%
HIV-1 RT Y181C
  inhibition at 1 µM: 36%
[1]
  inhibition at 1 µM: 63%

## CCN1c2ncccc2C(=O)N(C)c2ccc(-c3cccn3C(C)=O)nc21 [Example 14, 2-(1-Acetylpyrrol-2-yl)-5,11-dihydro-11-ethyl-5-methyl-6H-dipyrido[3,2-b:2',3'-e][1,4]-diazepin-6-one]
HIV-1 RT Y188L
  Reverse Transciptase Assay % inhibition (1 µM) Y188L: 23%
HIV-1 RT Y181C
  inhibition at 1 µM: 51%
[1]
  inhibition at 1 µM: 74%

## CCN1C(=O)c2cccnc2N(C)c2nc(-c3ccc[nH]3)ccc21 [Example 23, 5,11-Dihydro-5-ethyl-11-methyl-2-(2-pyrrolyl)-6H-dipyrido[3,2-b:2',3'-e][1,4]diazepin-6-one]
HIV-1 RT Y188L
  Reverse Transciptase Assay % inhibition (1 µM) Y188L: 47%
HIV-1 RT Y181C
  inhibition at 1 µM: 37%
[1]
  inhibition at 1 µM: 58%

## CCN1c2ncccc2C(=O)N(C)c2ccc(-c3c[nH]c(C(N)=O)c3)nc21 [Example 22, 2-(2-Carbamylpyrrol-4-yl)-5,11-dihydro-11-ethyl-5-methyl-6H-dipyrido[3,2-b:2',3'-e][1,4]-diazepin-6-one]
HIV-1 RT Y188L
  Reverse Transciptase Assay % inhibition (1 µM) Y188L: 30%
HIV-1 RT Y181C
  inhibition at 1 µM: 72%
[1]
  inhibition at 1 µM: 76%

## CCN1c2ncccc2C(=O)N(C)c2ccc(-c3cc[nH]c3C(C)=O)nc21 [Example 15, 2-(2-Acetylpyrrol-3-yl)-5,11-dihydro-11-ethyl-5-methyl-6H-dipyrido[3,2-b:2',3'-e][1,4]-diazepin-6-one]
HIV-1 RT Y188L
  Reverse Transciptase Assay % inhibition (1 µM) Y188L: 10%
HIV-1 RT Y181C
  inhibition at 1 µM: 59%
[1]
  inhibition at 1 µM: 52%

## 2-(1-Carbamylpyrazol-3-yl)-5,11-dihydro-11-ethyl-5-methyl-6H-dipyrido[3,2-b:2',3'-e][1,4]-diazepin-6-one [Example 7]
HIV-1 RT Y188L
  Reverse Transciptase Assay % inhibition (1 µM) Y188L: 52%
HIV-1 RT Y181C
  Reverse Transciptase Assay % inhibition (1 µM) Y181C: 84%
[1]
  Reverse Transciptase Assay % inhibition (1 µM) WT: 94%

## CCN1c2ncccc2C(=O)N(C)c2ccc(-c3cccn3C)nc21 [Example 11, 5,11-Dihydro-11-ethyl-5-methyl-2-(1-methylpyrrol-2-yl)-6H-dipyrido[3,2-b:2',3'-e][1,4]-diazepin-6-one]
[1]
  inhibition at 1 µM: 81%

## CCOC(=O)c1cc(-c2ccc3c(n2)N(CC)c2ncccc2C(=O)N3C)c[nH]1 [Example 16, 5,11-Dihydro-2-[2-(ethoxycarbonyl)pyrrol-4-yl]-11-ethyl-5-methyl-6H-dipyrido-[3,2-b:2',3'-e][1,4]diazepin-6-one]
HIV-1 RT Y181C
  inhibition at 1 µM: 74%
[1]
  inhibition at 1 µM: 83%

## CCN1c2ncccc2C(=O)N(C)c2ccc(-c3cc4cc(OC)ccc4[nH]3)nc21 [Example 27, 5,11-Dihydro-11-ethyl-2-(5-methoxyindol-2-yl)-5-methyl-6H-dipyrido[3,2-b:2',3'-e][1,4]-diazepin-6-one]
HIV-1 RT Y188L
  Reverse Transciptase Assay % inhibition (1 µM) Y188L: 58%
HIV-1 RT Y181C
  inhibition at 1 µM: 45%
[1]
  inhibition at 1 µM: 61%

## CCN1c2ncccc2C(=O)N(C)c2ccc(-c3cnn(C(C)=O)c3)nc21 [Example 8, 2-(1-Acetylpyrazol-4-yl)-5,11-dihydro-11-ethyl-5-methyl-6H-dipyrido[3,2-b:2',3'-e][1,4] diazepin-6-one]
HIV-1 RT Y188L
  Reverse Transciptase Assay % inhibition (1 µM) Y188L: 80%
HIV-1 RT Y181C
  inhibition at 1 µM: 80%
[1]
  inhibition at 1 µM: 96%
